In US8492396B2, “Therapeutic uses of adrenergic α-1 receptor antagonists” (SANOFI, priority 2007, dated 2013):

How the values were obtained:
urinary bladder = experiment: CYP-evoked plasma protein extravasation (Evans blue) in urinary bladder; type: in vivo; details: CYP 150 mg/kg i.p., 90 min after CYP; ruthenium red 4 mg/kg s.c.; camphor 50 μmol/kg i.p.
Method: Male Sprague-Dawley rats and Swiss mice were administered with CYP (150 mg/kg, i.p.) or its vehicle (0.9% NaCl) for cystitis induction. 48 hours later urinary bladders were removed and placed in an organ bath for motor response measurement. Writhing behaviors and plasma protein extravasation were investigated 90 min after the CYP administration. Intraperitoneal administration of cyclophosphamide (150 mg/kg, 48 h before) is known to decrease bladder capacity and increased micturition frequency (Maggi et al., 1992, J Auton Nerv Syst, 38, 201-8). These effects of cyclophosphamide were abolished in rats pretreated with capsaicin as adults (Maggi et al., 1992, J Auton Nerv Syst, 38, 201-8). Thus, the inflammatory responses to cyclophosphamide are mediated by neurogenic inflammatory mechanisms. Evans blue dye was used to measure plasma extravasation. The proinflammatory stimulus was given immediately after the injection of the dye (30 mg/kg i.v. over 5 s) in the jugular vein. The chest was opened 10 min or at different time intervals as required after the injection of Evans blue and the animal perfused for 3 min with a phosphate buffer. The urinary bladder, urethra and prostate were removed, blotted and weighed. […] The amount of Evans blue extravasated from the […] was measured using a spectrophotometer and expressed as ng/mg of wet weight.

mice = experiment: writhings evoked by intraperitoneal acetic acid in CYP-treated mice; type: in vivo; details: pre-treatment 30 μg/kg i.v., CYP 150 mg/kg i.p.
Method: Male Sprague-Dawley rats and Swiss mice were administered with CYP (150 mg/kg, i.p.) or its vehicle (0.9% NaCl) for cystitis induction. 48 hours later urinary bladders were removed and placed in an organ bath for motor response measurement. Writhing behaviors and plasma protein extravasation were investigated 90 min after the CYP administration.

[1] = system: urinary bladder taken from CYP-treated rats; experiment: contractile response to capsaicin in urinary bladder taken from CYP-treated rats; type: in vivo, rat; details: pretreatment with alfuzosin; bladders from CYP-treated rats
Method: Male Sprague-Dawley rats and Swiss mice were administered with CYP (150 mg/kg, i.p.) or its vehicle (0.9% NaCl) for cystitis induction. 48 hours later urinary bladders were removed and placed in an organ bath for motor response measurement. Writhing behaviors and plasma protein extravasation were investigated 90 min after the CYP administration. […] The eNANC response to EFS was reproducible at 60 min intervals. The effect of alfuzosin or its vehicle on the eNANC response to EFS was studied in parallel experiments. At the beginning or end of each experiment tissues were challenged with carbachol (1 μM). The effect of alfuzosin was studied also in bladder strips obtained from rats treated with cyclophosphamide.

[2] = system: strips of rat urinary bladder; experiment: eNANC contractile response to electrical field stimulation in isolated urinary bladder strips from CYP-treated rats; type: in vivo; details: intravenous pretreatment 30 μg/kg; bladders taken 48 h after CYP 150 mg/kg i.p.
Method: Male Sprague-Dawley rats and Swiss mice were administered with CYP (150 mg/kg, i.p.) or its vehicle (0.9% NaCl) for cystitis induction. 48 hours later urinary bladders were removed and placed in an organ bath for motor response measurement. Writhing behaviors and plasma protein extravasation were investigated 90 min after the CYP administration. Strips of rat urinary bladder were taken from terminally anesthetized animals and mounted in organ baths and after an equilibration period the eNANC contractile response to electrical field stimulation (EFS, 5 Hz, 1 ms width, 10 V) in the absence and presence of atropine (1 μM) is studied (Rigoni et al., 2003, Br J Pharmacol, 138, 977-85) The contraction produced by EFS in these experimental conditions is entirely mediated by SP and NKA released from terminals of primary sensory neurons. The eNANC response to EFS was reproducible at 60 min intervals. The effect of alfuzosin or its vehicle on the eNANC response to EFS was studied in parallel experiments. At the beginning or end of each experiment tissues were challenged with carbachol (1 μM). The effect of alfuzosin was studied also in bladder strips obtained from rats treated with cyclophosphamide. […]

SMILES	CYP-evoked plasma protein extravasation in urinary bladder (urinary bladder)	reduction of the CYP-induced increase in number of writhings evoked by acetic acid (mice)	reversal of CYP-induced reduction of the contractile response to capsaicin [1]	reversal of CYP-induced reduction of the contractile response to EFS (eNANC, in the presence of atropine) [2]
N.N.N.N.N.N.N.N.N.N.N.N.N.N.[Cl-].[Cl-].[Cl-].[Cl-].[Cl-].[Cl-].[O-2].[O-2].[Ru+3].[Ru+3].[Ru+4] [ruthenium red]	completely prevented	–	–	–
CC12CCC(CC1=O)C2(C)C (centres unmarked) [camphor]	completely prevented	–	–	–
COc1cc2nc(N(C)CCCNC(=O)C3CCCO3)nc(N)c2cc1OC (centres unmarked) [alfuzosin]	–	48 % of reduction	~50 % of reversal	> 50 % of reversal
